# Test results published in PubChem BioAssay AID204 (DTP/NCI, 2004).
# “And” between values parts separate entries of the source, which are not always exact repeats. Equal values may be shown once. Inconclusive results and toxic doses are left out. Starred links: 1 amine or outer side, 2 acyl side, 3 side chain; linkers in the order of their positions; H or OH if unused. Positions of bridges follow the written chain, without caps; N, C: chain ends. Non-standard residues stand in square brackets, D forms with d. Residues, ends and D or L forms follow the SMILES beside them. Chains are numbered I, II in the order given. Actinocin(9to1) = Cc1c2oc3c(C)ccc(C(=O)[*:1])c3nc-2c(C(=O)[*:2])c(N)c1=O; aThr = C[C@H](O)[C@H](N)C(=O)O; NMeV = CN[C@H](C(=O)O)C(C)C; Sar = CNCC(=O)O
# Tested on: BDF1 mice, P288 methotrexate-resistant leukemia, survival T/C
# Assay: NCI In Vivo Anticancer Drug Screen. Data for tumor model P288 Lymphocytic Leukemia resistant to methotrexate; NSC 740 (intraperitoneal) in B6D2F1 (BDF1) mice
# Conditions: endpoint: median survival time, schedule: Q01DX010 (ip), higher = longer survival
# Procedure: The antitumor activity of compounds was measured in mice bearing transplantable tumors. Survival or tumor size were measured and the results are expressed as the measurement made in the treated group (T) divided by the measurement made in the vehicle treated control group (C). The tumor model used in this assay is P288 Lymphocytic Leukemia resistant to methotrexate; NSC 740 (intraperitoneal) in B6D2F1 (BDF1) mice
# [1] = dose: 250.0 micrograms/kg/injection, vehicle: saline
# [2] = dose: 5.0 mg/kg/injection, vehicle: saline
# [3] = dose: 20.0 mg/kg/injection, vehicle: saline
# [4] = dose: 40.0 mg/kg/injection, vehicle: saline
# [5] = dose: 62.5 mg/kg/injection, vehicle: saline
# [6] = dose: 125.0 mg/kg/injection, vehicle: saline
# [7] = dose: 250.0 mg/kg/injection, vehicle: saline
# [8] = dose: 500.0 mg/kg/injection, vehicle: saline
# [9] = dose: 25.0 mg/kg/injection, vehicle: saline
# [10] = dose: 10.0 mg/kg/injection, vehicle: saline
smiles,measurement,setting,value
N#C[C@@H]1C2C=CC(CC2)[C@H]1C#N,T/C,"dose: 31.0 micrograms/kg/injection, vehicle: saline",90 % of control
same,T/C,"dose: 63.0 micrograms/kg/injection, vehicle: saline",118 % of control
same,T/C,"dose: 125.0 micrograms/kg/injection, vehicle: saline",109 % of control
same,T/C,[1],90 % of control
O=c1[nH]cc(F)c(=O)[nH]1,T/C,[2],108 % of control
same,T/C,[3],159 % of control
same,T/C,[4],91 % of control and 95 % of control
CS(=O)(=O)OCCCl,T/C,"dose: 18.8 mg/kg/injection, vehicle: saline",94 % of control
same,T/C,"dose: 75.0 mg/kg/injection, vehicle: saline",90 % of control and 110 % of control
same,T/C,"dose: 150.0 mg/kg/injection, vehicle: saline",118 % of control and 121 % of control
CC(=O)N(C)C,T/C,[5],95 % of control and 120 % of control
same,T/C,[6],90 % of control and 95 % of control
same,T/C,[7],105 % of control and 110 % of control
same,T/C,[8],110 % of control
c1ccc(CNc2ncnc3[nH]ncc23)cc1,T/C,"dose: 8.0 mg/kg/injection, vehicle: saline",90 % of control and 115 % of control
same,T/C,"dose: 16.0 mg/kg/injection, vehicle: saline",100 % of control and 110 % of control
same,T/C,"dose: 32.0 mg/kg/injection, vehicle: saline",100 % of control and 110 % of control
same,T/C,"dose: 64.0 mg/kg/injection, vehicle: saline",110 % of control
O=C1C(NC(=O)C2CCCCC2)=C(N2CC2)C(=O)C(NC(=O)C2CCCCC2)=C1N1CC1,T/C,[9],90 % of control and 100 % of control
same,T/C,"dose: 50.0 mg/kg/injection, vehicle: saline",90 % of control and 100 % of control
same,T/C,"dose: 100.0 mg/kg/injection, vehicle: saline",90 % of control and 100 % of control
same,T/C,"dose: 200.0 mg/kg/injection, vehicle: saline",100 % of control and 110 % of control
CCOC(N)=O,T/C,[6],100 % of control
same,T/C,[7],100 % of control
same,T/C,[8],100 % of control
same,T/C,"dose: 1000.0 mg/kg/injection, vehicle: saline",87 % of control and 88 % of control
Oc1cc(CN(CCCl)CCCl)c(O)cc1CN(CCCl)CCCl,T/C,"dose: 0.63 mg/kg/injection, vehicle: saline",104 % of control and 115 % of control
same,T/C,"dose: 1.25 mg/kg/injection, vehicle: saline",121 % of control
same,T/C,[2],115 % of control
[I][Hg][CH2]C1COC([CH2][Hg][I])CO1 (configuration not stated),T/C,"dose: 1.56 mg/kg/injection, vehicle: saline",86 % of control
same,T/C,"dose: 3.13 mg/kg/injection, vehicle: saline",95 % of control
same,T/C,"dose: 6.25 mg/kg/injection, vehicle: saline",100 % of control
same,T/C,"dose: 12.5 mg/kg/injection, vehicle: saline",100 % of control
same,T/C,[9],87 % of control
S=P(N1CC1)(N1CC1)N1CC1,T/C,"dose: 0.75 mg/kg/injection, vehicle: saline",100 % of control and 111 % of control
same,T/C,"dose: 1.5 mg/kg/injection, vehicle: saline",111 % of control
same,T/C,"dose: 6.0 mg/kg/injection, vehicle: saline",116 % of control and 120 % of control
O[C@H](CN1CC1)[C@@H](O)CN1CC1,T/C,"dose: 62.5 micrograms/kg/injection, vehicle: saline",100 % of control
same,T/C,[1],155 % of control and 181 % of control
O=c1[nH]c(=O)n(C2CC(O)C(CO)O2)cc1F (configuration not stated),T/C,[2],95 % of control
same,T/C,[10],108 % of control and 111 % of control
same,T/C,[3],108 % of control and 115 % of control
same,T/C,[4],116 % of control and 123 % of control
same,T/C,"dose: 80.0 mg/kg/injection, vehicle: saline",92 % of control
CCOC(=O)c1[nH]c2ccccc2c1CN(CCCl)CCCl,T/C,[10],96 % of control
same,T/C,[3],111 % of control
CCCSc1ncnc2nc[nH]c12,T/C,"dose: 15.6 mg/kg/injection, vehicle: saline",104 % of control
same,T/C,"dose: 31.3 mg/kg/injection, vehicle: saline",90 % of control and 100 % of control
same,T/C,[5],90 % of control and 104 % of control
same,T/C,[6],90 % of control
"Cc1c2oc3c(C)ccc(C(=O)N[C@@H]4C(=O)N[C@H](C(C)C)C(=O)N5CCC[C@H]5C(=O)N(C)CC(=O)N(C)[C@@H](C(C)C)C(=O)O[C@H]4C)c3nc-2c(C(=O)N[C@@H]2C(=O)N[C@H](C(C)C)C(=O)N3CCC[C@H]3C(=O)N(C)CC(=O)N(C)[C@@H](C(C)C)C(=O)O[C@H]2C)c(N)c1=O (I: [aThr][dV]P[Sar][NMeV] / II: [aThr][dV]P[Sar][NMeV]; ester I:1-I:C, II:1-II:C; linker I:N-II:N via Actinocin(9to1))",T/C,"dose: 25.0 micrograms/kg/injection, vehicle: other",160 % of control
same,T/C,"dose: 50.0 micrograms/kg/injection, vehicle: other",190 % of control
